Source: patent US11419876B2, “Mirtazapine as a pre-shipping inhibitor of bovine respiratory disease” (Iowa State University Research Foundation, Inc., priority 2019, dated 2022)

Tested on: BRD
Test: Pre-shipment mirtazapine treatment for BRD prevention at the feedlot
Assay type: in vivo, ranch heifer calves
Description: An initial study was performed to confirm BRD prevention at the feedlot using a pre-shipment treatment comprising mirtazapine. A total of 24 ranch heifer calves that were recently weaned (mixed breeds, approximately 350 lbs, 6 months old) were randomly assigned to two different treatment groups. One group was fed mirtazapine in a standard starter feed at 5 mg/kg/day as a pre-shipment treatment. The treatment dosage was extrapolated from feline dosing. After one week, calves were shipped from southern Missouri to Iowa. For the next […], calves were monitored for BRD which was ascribed to any animal showing respiratory signs (i.e. coughing, runny nose or eyes, labored or rapid breathing) plus a rectal temperature >104° F. BRD(+) calves were then treated with florfenicol+flunixin. Calves requiring a second treatment received ceftiofur plus tulathromycin, while the third treatment consisted of enrofloxacin, if needed. At the end of the study calves were sold as seedstock and were kept out of the food chain.
The efficacy of the mirtazapine as a pre-shipment treatment for preventing BRD was assessed by various clinical parameters, as shown in Table 1 and FIG. 1.
The % morbidity equals the % of calves that developed BRD in the first six weeks. The % mortality equals the percent of BRD(+) calves that died of the disease. The % retreats equals the % of BRD(+) calves that required >2 treatments for BRD once developed. The data are compared to Control calves that were not fed mirtazapine prior to shipping to a feedlot (“None”).

[1] = fed in starter feed at 5 mg/kg/day for one week pre-shipment, BRD(+) calves

SMILES: CN1CCN2c3ncccc3Cc3ccccc3C2C1 (stereo not drawn) [Mirtazapine, 1,2,3,4,10,14b-hexahydro-2-methyl-pyrazino[2,1-a]pyrido[2,3-c] benzazepine]
- % Morbidity (% of calves that developed BRD) (fed in starter feed at 5 mg/kg/day for one week pre-shipment, % of calves that developed BRD in the first six weeks): 42%
- % Mortality (percent of BRD(+) calves that died of the disease) [1]: 0%
- % Retreats (% of BRD(+) calves that required >2 treatments for BRD) [1]: 11%
- Avg. days to onset BRD (fed in starter feed at 5 mg/kg/day for one week pre-shipment, after shipping to feedlot): 7.3 days
- Avg. Rectal Temp at BRD (fed in starter feed at 5 mg/kg/day for one week pre-shipment, at clinical presentation with BRD): 104.2 degrees F.
- Effect on morbidity, mortality and severity of BRD (in words) (fed to calves for one week prior to shipping, versus control calves not fed mirtazapine): reduces the morbidity, mortality, and severity
